Results: patent publication US5254549A, “New BHT ether compounds and their use as hypolipidemic and antiatherosclerotic drugs” (Merz & Co. GmbH & Co., priority 1991, dated 1993)
Read-outs that look alike come from different tables or passages of the source.

Experiments:
[1] = system: triglycerides; assay: Lipid-lowering properties in fasting normolipidemic rats (serum triglycerides, GPO-PAP method); type: in vivo; conditions: rat, single oral dose 0.2 mmol/kg, read-out: Mean change (Δ mean reduction) of triglyceride concentrations versus vehicle-treated control
Protocol: The lipid-lowering properties of the compounds according to the invention were investigated in a rat model. In this model a single dose (0.2 mmol/kg) of the test substance was administered to fasting normolipidemic rats by the oral route. 240 and 360 minutes after application, blood samples were taken, the concentrations of triglycerides being assessed by a standard method (namely GPO-PAP method, E. Merck-system, Darrdstadt, Germany) (n=5 rats per measurement time).
In Table 2 the mean changes are given in percent as compared to a solvent (cremophor, 30% in aqua dest) control.
Table 2: Mean changes (Δ mean reduction) in percent of triglyceride concentrations 240 and 360 minutes after a single application versus vehicle-treated control.

[2] = Trilinolenine assay of antioxidant properties (TBA-reactive material); type: biochemical; conditions: 5×10^-5 M, 3 h at 37° C., versus vehicle-treated control; 50 µM
Protocol: (§1) The antioxidant properties of the compounds according to the invention were studied in in-vitro tests. In these tests the substance was incubated with the substrate to be oxidized (synthetic triglyceride with unsaturated fatty acids, i.e., trilinolenine or human LDL). After the incubation period, the degree of oxidation was determined using the so called thiobarbituric acid (TBA) assay. TBA reacts with malondialdehyde (MDA), which is one of the essential oxidation products. The reaction product was assayed photometrically.
400 μl of trilinolenine was incubated for 3 h at 37° C. with 2 ml HAM F 10 medium with vehicle (namely, ethanol, 0.5% final concentration) or test substance (concentration: 5×10^-5 M) (oxidation is effected without special catalysts).
The total TBA-reactive material was determined in 1 ml of the incubate by adding 1.5 ml of 0.67% TBA solution to 0.05 N NAOH and 1.5 ml to a 20% trichloroacetic acid solution. The mixture was reacted for 60 min. on a boiling water bath. After cooling, absorption was determined at 532 nm.
(§2) Three preparations were tested per test compound.
(§3) Tables 3a (trilinolenine assay) and 3b (LDL assay) represent the mean changes in percent as compared to solvent control.
(§4) Table 3: mean change (Δ mean reduction) in percent of the concentration of TBA-reactive material after 3-h (a: trilinolenine assay) and 24-h (b: LDL assay) incubation versus vehicle-treated control preparation.

[3] = system: Smooth muscle cells from the aorta of balloon-catheterized rats; assay: Antiproliferative effect on smooth muscle cells in vitro; type: cell-based; conditions: Rattus norvegicus, 72 h; 5×10^-5 M, 3 days, versus vehicle-treated control; read-out: Mean change (Δ mean reduction) of the number of smooth vascular muscle cells
Protocol: Smooth muscle cells, obtained after isolation from the aorta of balloon-catheterized rats, were cultivated in DMEM under addition of 10% of fetal calf serum and subject to passages.
For the assay 10,000 cells of one passage were inoculated per dish and incubated for 3 days with vehicle (namely DMSO, 0.5% final concentration) or test compound (5×10^-5 M) 4 h after innoculation. After 3 days a cell count was made. Six preparations-Were tested per test compound.
Table 5: Mean change (Δ mean reduction) in percent of the number of smooth vascular muscle cells after incubation with test substance for 3 days as compared to vehicle-treated control preparation.

[4] = system: Human endothelial cells of the umbilical vein; assay: Endothelial protection against cytotoxic effects of oxidized LDL; type: cell-based; conditions: 2×10^-5 M, 24 h at 37° C., LDL 200 μg/ml; for Mean change (Δ mean reduction) of the concentration of TBA-reactive material after incubation of endothelial cells with LDL: versus control preparation 1 (vehicle + LDL), 20 µM; for viability at 20 µM: Homo sapiens, Endothelial cell, control preparation 2 without LDL = 100%, read-out: Mean number of endothelial cells after incubation with LDL as compared to control preparation 2
Protocol: Human endothelial cells of the umbilical vein were isolated after collagenase vascular treatment and cultured.
For the assay the cells were dispersed in a density of 50,000 per dish and cultivated for 4 days with Ham's F 12/DMEM medium (ratio: 4:1) under addition of 15% fetal calf serum, 5% horse serum and 10 ng/ml ECGF heparin.
After 4 days the cells were washed with serum-free medium and used in the cytotox assay.
For this assay the cells were incubated f or 24 h at 37° C. in 1 ml of Ham's F 10 medium (+ECGF heparin) with LDL (200 μg/ml). During this time period either the vehicle, namely, ethanol, 0.5% final concentration (control preparation 1) or the test substance (2×10^-5 M) was present. In parallel, one preparation was incubated without LDL and without any other substance and with vehicle (0.5% ethanol) to assess the maximum proliferation rate (control preparation 2).
After 24 h the resultant TBA-reactive material was determined in the medium or the number of cells counted.
as §2
Table 4a represents the mean changes in percent versus appropriate control preparation 1.
Table 4a: Mean change (Δ mean reduction) in percent of the concentration of TBA-reactive material after incubation of endothelial cells for 24 h with LDL versus appropriate control preparation 1.
Table 4b: Mean number of cells in percent after 24-h incubation with LDL as compared to appropriate control preparation 2.

[5] = system: human LDL; assay: LDL assay of antioxidant properties (TBA-reactive material); type: biochemical; conditions: 5×10^-5 M, 24 h, 10 μM Cu^2+, versus vehicle-treated control; 50 µM
Protocol: as §1
LDL (d=1.019-1.063) was obtained from human plasma by ultracentifugation under addition of EDTA.
100 μg of LDL was incubated with 0. 5 ml of HAM F 10 medium for 24 h at […] with vehicle (namely ethanol, 0. 5% final concentration) or test substance (concentration: 5×10^-5 M) in the presence of 10 μM of Cu^2+.
The total TBA-reactive material was determined in accordance with the trilinolenine assay.
as §2, §3, §4

[6] = Kinetics of nicotinic acid released from the compounds in fasting normolipidemic rats (GC/MS in serum); type: in vivo, rat; conditions: general statement
Protocol: The kinetics of nicotinic acid released from the compounds under investigation was studied in the rat. A single dose (0.2 mmol/kg) of the test substance was administered to fasting normolipidemic rats by gavage. 240 and 360 minutes thereafter, blood samples were taken and the concentration of nicotinic acid in serum was determined using a GC/MS method (n=5 rats per time). Table 1: Concentration of nicotinic acid (mg/1) in pooled serum samples after a single application of drug.

## CC(C)(C)c1cc(COCCCC/C=C\c2cccnc2)cc(C(C)(C)C)c1O [3/181, (Z)-2,6-Di-tert-butyl-4-(8-(3-pyridyl)-2-oxaoct-7-enyl]-phenol]
[1]; 4 h, Time 240'
  inhibition in vivo at 200 µmol/kg: 57%
[1]; 6 h, Time 360'
  inhibition in vivo at 200 µmol/kg: 57%
[2]
  Mean change (Δ mean reduction) of the concentration of TBA-reactive material, trilinolenine assay: 76%
[3]
  inhibition at 50 µM: 81%
[4]
  Mean change (Δ mean reduction) of the concentration of TBA-reactive material after incubation of endothelial cells with LDL: 65%
  viability at 20 µM: 122%
[5]
  Mean change (Δ mean reduction) of the concentration of TBA-reactive material, LDL assay: 76%

## CC(C)(C)c1cc(COCCCCCCCc2cccnc2)cc(C(C)(C)C)c1O [3/188, 2,6-Di-tert-butyl-4-[9-(3-pyridyl)-2-oxanonyl]phenol]
[1]; 4 h, Time 240'
  inhibition in vivo at 200 µmol/kg: 53%
[1]; 6 h, Time 360'
  inhibition in vivo at 200 µmol/kg: 40%
[2]
  Mean change (Δ mean reduction) of the concentration of TBA-reactive material, trilinolenine assay: 66%
[3]
  inhibition at 50 µM: 63%
[4]
  Mean change (Δ mean reduction) of the concentration of TBA-reactive material after incubation of endothelial cells with LDL: 54%
  viability at 20 µM: 79%
[5]
  Mean change (Δ mean reduction) of the concentration of TBA-reactive material, LDL assay: 71%

## CC(C)(C)c1cc(COCCCCc2cccnc2)cc(C(C)(C)C)c1O [3/187, 2,6-Di-tert-butyl-4-[6-(3-pyridyl)-2-oxahexyl]phenol]
[1]; 4 h, Time 240'
  inhibition in vivo at 200 µmol/kg: 65%
[1]; 6 h, Time 360'
  inhibition in vivo at 200 µmol/kg: 55%
[2]
  Mean change (Δ mean reduction) of the concentration of TBA-reactive material, trilinolenine assay: 71%
[3]
  inhibition at 50 µM: 93%
[4]
  Mean change (Δ mean reduction) of the concentration of TBA-reactive material after incubation of endothelial cells with LDL: 53%
  viability at 20 µM: 80%
[5]
  Mean change (Δ mean reduction) of the concentration of TBA-reactive material, LDL assay: 82%

## CC(C)(C)c1cc(CCCOCCCCCc2cccnc2)cc(C(C)(C)C)c1O [3/191, 2,6-Di-tert-butyl-4-[9-(3-pyridyl)-4-oxanonyl)phenol]
[1]; 4 h, Time 240'
  inhibition in vivo at 200 µmol/kg: 37%
[1]; 6 h, Time 360'
  inhibition in vivo at 200 µmol/kg: 32%
[2]
  Mean change (Δ mean reduction) of the concentration of TBA-reactive material, trilinolenine assay: 76%
[3]
  inhibition at 50 µM: 79%
[4]
  Mean change (Δ mean reduction) of the concentration of TBA-reactive material after incubation of endothelial cells with LDL: 33%
  viability at 20 µM: 63%
[5]
  Mean change (Δ mean reduction) of the concentration of TBA-reactive material, LDL assay: 86%

## CC(C)(C)c1cc(COCCCCCCc2cccnc2)cc(C(C)(C)C)c1O [3/161, 2,6-Di-tert-butyl-4-[8-(3-pyridyl)-2-oxaoctyl]phenol]
[1]; 4 h, Time 240'
  inhibition in vivo at 200 µmol/kg: 60%
[1]; 6 h, Time 360'
  inhibition in vivo at 200 µmol/kg: 67%
[2]
  Mean change (Δ mean reduction) of the concentration of TBA-reactive material, trilinolenine assay: 58%
[3]
  inhibition at 50 µM: 98%
[4]
  Mean change (Δ mean reduction) of the concentration of TBA-reactive material after incubation of endothelial cells with LDL: 64%
  viability at 20 µM: 107%
[5]
  Mean change (Δ mean reduction) of the concentration of TBA-reactive material, LDL assay: 79%

## CC(C)(C)c1cc(COCCCCCc2cccnc2)cc(C(C)(C)C)c1O [3/192, 2,6-Di-tert-butyl-4-[7-(3-pyridyl)-2-oxaheptyl]phenol]
[1]; 4 h, Time 240'
  inhibition in vivo at 200 µmol/kg: 44%
[1]; 6 h, Time 360'
  inhibition in vivo at 200 µmol/kg: 53%
[2]
  Mean change (Δ mean reduction) of the concentration of TBA-reactive material, trilinolenine assay: 74%
[3]
  inhibition at 50 µM: 95%
[4]
  Mean change (Δ mean reduction) of the concentration of TBA-reactive material after incubation of endothelial cells with LDL: 47%
  viability at 20 µM: 79%
[5]
  Mean change (Δ mean reduction) of the concentration of TBA-reactive material, LDL assay: 86%

## CC(C)(C)c1cc(COCc2cccnc2)cc(C(C)(C)C)c1O [3/156]
[6]
  levels of nicotinic acid (in words): excessively high levels of nicotinic acid

## CC(C)(C)c1cc(CCCOCc2cccnc2)cc(C(C)(C)C)c1O [3/124, 2,6-Di-tert-butyl-4-(5-(3-pyridyl)-4-oxapentyl]phenol]
[1]; 4 h, Time 240'
  inhibition in vivo at 200 µmol/kg: 73%
[1]; 6 h, Time 360'
  inhibition in vivo at 200 µmol/kg: 76%
[2]
  Mean change (Δ mean reduction) of the concentration of TBA-reactive material, trilinolenine assay: 76%
[3]
  inhibition at 50 µM: 71%
[4]
  Mean change (Δ mean reduction) of the concentration of TBA-reactive material after incubation of endothelial cells with LDL: 57%
  viability at 20 µM: 118%
[5]
  Mean change (Δ mean reduction) of the concentration of TBA-reactive material, LDL assay: 90%

## CC(C)(C)c1cc(CCCOCCCc2cccnc2)cc(C(C)(C)C)c1O [3/190, 2,6-Di-tert-butyl-4-[7-(3-pyridyl)-4-oxaheptyl]phenol]
[1]; 4 h, Time 240'
  inhibition in vivo at 200 µmol/kg: 56%
[1]; 6 h, Time 360'
  inhibition in vivo at 200 µmol/kg: 28%
[2]
  Mean change (Δ mean reduction) of the concentration of TBA-reactive material, trilinolenine assay: 72%
[3]
  inhibition at 50 µM: 91%
[4]
  Mean change (Δ mean reduction) of the concentration of TBA-reactive material after incubation of endothelial cells with LDL: 36%
  viability at 20 µM: 65%
[5]
  Mean change (Δ mean reduction) of the concentration of TBA-reactive material, LDL assay: 89%

## CC(C)(C)c1cc(COCCCCC#Cc2cccnc2)cc(C(C)(C)C)c1O [3/179, 2,6-Di-tert-butyl-4-[8-(3-pyridyl)-2-oxaoct-7-ynyl]phenol]
[1]; 4 h, Time 240'
  inhibition in vivo at 200 µmol/kg: 57%
[1]; 6 h, Time 360'
  inhibition in vivo at 200 µmol/kg: 70%
[2]
  Mean change (Δ mean reduction) of the concentration of TBA-reactive material, trilinolenine assay: 79%
[3]
  inhibition at 50 µM: 55%
[4]
  Mean change (Δ mean reduction) of the concentration of TBA-reactive material after incubation of endothelial cells with LDL: 43%
  viability at 20 µM: 76%
[5]
  Mean change (Δ mean reduction) of the concentration of TBA-reactive material, LDL assay: 73%
